SMILES strings stand for the structures.

The target in the first test is T1, SMS2 (Homo sapiens, UniProt Q8NHU3).
T1 construct: CAO, Yu research team, National Protein Scientific Center (Shanghai); supplied by an outside laboratory, not a commercial vendor
T1 sequence (Q8NHU3 1-365): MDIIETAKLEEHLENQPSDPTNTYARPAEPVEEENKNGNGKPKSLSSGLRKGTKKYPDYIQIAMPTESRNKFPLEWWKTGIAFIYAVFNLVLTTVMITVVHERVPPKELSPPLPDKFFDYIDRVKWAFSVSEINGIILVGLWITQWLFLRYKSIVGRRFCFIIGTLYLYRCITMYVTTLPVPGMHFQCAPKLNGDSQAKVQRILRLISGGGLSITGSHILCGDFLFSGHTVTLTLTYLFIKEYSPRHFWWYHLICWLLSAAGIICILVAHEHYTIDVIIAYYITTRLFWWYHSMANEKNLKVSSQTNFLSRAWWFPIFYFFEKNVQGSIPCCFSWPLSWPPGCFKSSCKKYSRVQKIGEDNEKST
Briefly: SMS2 inhibitory activity in vitro, HPLC fluorescence quantitative detection (C6-NBD-ceramide to C6-NBD-SM). The class given is biochemical. Conditions: 1 µM test compound; SMS2 pure enzyme; 37°C, 30 minutes; average of two measurements; read-out: Inhibition rate on SMS2 at C/µM 1. From the text: • 1. Electro-thermostatic water bath, from Shanghai Yiheng Technology Co., Ltd.); • 2. Vortex Mixer, with model ID of XW-80A, from Shanghai Jingke Industrial Co., Ltd.; • 3. […] High Performance Liquid Chromatography Agilent 1100, equipped with a quaternary pump, vacuum degassing, and FLD fluorescence detector, from Agilent Technologies, Palo Alto, CA, USA; • 5. HPLC column COSMOSIL 5C18-MS-II (4.6mm I.D. X 250mm); • 6. […] The organic solvents used in the present disclosure were purchased from Shanghai National Reagent Company, wherein methanol was pure chromatography; water was ultra-pure water which is filtrated by Milli-Q pump, deionized and ultra-filtrated with 0.22 µm membrane; and other biological consumables were purchased from domestic companies; • 8. Preparation of test compound solutions: each test compound was accurately weighed and dissolved in an appropriate volume of DMSO to prepare a 10 mmol/L stock solution. The stock solution was then diluted with an appropriate volume of DMSO to achieve the desired working concentration; • 9. SMS2 pure enzyme, DDM solution and buffer solution were provided by CAO, Yu research team from National Protein Scientific Center (Shanghai).
79 µl of the diluted enzyme solution were transferred into a 1.5 mL EP tube, 1 µl of inhibitor DMSO solution were added thereto, vortexing for 15 seconds, followed by standing at room temperature for 5 minutes. 20 µl of a mixed solution of DMPC and C6-NBD-ceramide were added, vortexing for 15 seconds, and incubated at 37°C for 30 minutes. 200 µl of anhydrous ethanol were added to quench the reaction, vortexing for 15 seconds. 200 µl of the reaction solution were taken out and stored at 4°C and avoided light for HPLC detection.
The peak area values of A(sm) and A(ceramide) in the HPLC chromatogram corresponding to C6-NBD-SM and C6-NBD-Ceramide in the DMSO group and inhibitor group samples were analyzed and recorded, and the inhibition rate of the test compound was calculated according to the following formula. Inhibition rate = (Peak area values of DMSO group−Peak area values of Inhibitor group)/(Peak area values of DMSO group) × 100% [formula]
As for `O=C(Nc1cc(C(F)(F)F)ccn1)c1sccc1OCc1ccccc1` [1-5, 3-benzyloxy-N-(4-(trifluoromethyl)pyridin-2-yl)thiophene-2-carboxamide], the inhibition at 1 µM is 47%.
For the compound `O=C(Nc1cccnc1)c1sccc1OCc1cccc2ccccc12` [1-10, 3-(naphthalen-1-ylmethoxy)-N-(pyridin-3-yl)thiophene-2-carboxamide], the inhibition at 1 µM was found to be 86%.
On to `O=C(Nc1cccnc1)c1sccc1OCc1cccc2cccnc12` [1-12, N-(pyridin-3-yl)-3-(quinolin-8-ylmethoxy)thiophene-2-carboxamide], for which the inhibition at 1 µM was determined as 68%.
In the case of `O=C(Nc1cccnc1)c1sccc1OCc1c2ccccc2cc2ccccc12` [1-13, 3-(anthracen-9-ylmethoxy)-N-(pyridin-3-yl)thiophene-2-carboxamide], the inhibition at 1 µM worked out at 50%.
On to `COc1ccc2ccccc2c1COc1ccsc1C(=O)Nc1cccnc1` [1-16, 3-[(2-methoxynaphthalen-1-yl)methoxy]-N-(pyridin-3-yl)thiophene-2-carboxamide], for which the inhibition at 1 µM was determined as 78%.
As to `O=C(Nc1cc(Cl)cc(Cl)n1)c1sccc1OCc1ccccc1` [1-20, 3-benzyloxy-N-(4,6-Dichloropyridin-2-yl)thiophene-2-carboxamide], the inhibition at 1 µM is 50%.
Take `O=C(Nc1cccnc1)c1sccc1OCc1cc(O)ccc1Cl` [1-24, 3-(2-chloro-5-hydroxybenzyloxy)-N-(pyridin-3-yl)thiophene-2-carboxamide]: the inhibition at 1 µM was found to be 78%.
`O=C(Nc1cccnc1)c1sccc1OCc1cc(OP(=O)(O)O)ccc1Cl` [1-26]: the inhibition at 1 µM is 13%.
Take `CCCCCOc1cccc(Cl)c1COc1ccsc1C(=O)Nc1cccnc1` [1-38, 3-(2-(n-pentyloxy)-6-chlorobenzyloxy)-N-(pyridin-3-yl)thiophene-2-carboxamide]: the inhibition at 1 µM is 91%.
Consider `CCCOc1cccc(Cl)c1COc1ccsc1C(=O)Nc1cccnc1` [1-39, 3-(2-chloro-6-propoxybenzyloxy)-N-(pyridin-3-yl)thiophene-2-carboxamide], for which the inhibition at 1 µM was 74%.
Take `Cc1cc(OCc2ccccc2)c(C(=O)Nc2cccnc2)s1` [1-40, 3-benzyloxy-5-methyl-N-(pyridin-3-yl)thiophene-2-carboxamide]: the inhibition at 1 µM was 23%.
Still for that read-out and setting: the value for `Cc1ccccc1COc1ccsc1C(=O)Nc1cccnc1` [1-41, 3-(2-methylbenzyloxy)-N-(pyridin-3-yl)thiophene-2-carboxamide] was 72%; that for `Cc1cccc(COc2ccsc2C(=O)Nc2cccnc2)c1` [1-43, 3-(3-methylbenzyloxy)-N-(pyridin-3-yl)thiophene-2-carboxamide] was 69%.
The same measure, in the same setting: the value for `O=C(Nc1cccnc1)c1sccc1OCc1ccccc1F` [1-44, 3-(2-fluorobenzyloxy)-N-(pyridin-3-yl)thiophene-2-carboxamide] was 54%; that for `O=C(Nc1cccnc1)c1sccc1OCc1cccc(F)c1` [1-45, 3-(3-fluorobenzyloxy)-N-(pyridin-3-yl)thiophene-2-carboxamide] was 67%.

Still in this test, the particulars now being: 10 µM test compound; SMS2 pure enzyme; 37°C, 30 minutes; average of two measurements; read-out: Inhibition rate on SMS2 at C/µM 10.
With `O=C(Nc1cccnc1)c1sccc1OCc1c(Cl)cccc1Cl` [1-3, 3-(2,6-dichlorobenzyloxy)-N-(pyridin-3-yl)thiophene-2-carboxamide], the inhibition at 10 µM came to 97%.
Take `O=C(Nc1cccnn1)c1sccc1OCc1ccccc1` [1-4, 3-benzyloxy-N-(pyridazin-3-yl)thiophene-2-carboxamide]: the inhibition at 10 µM was determined as 63%.
Take `O=C(Nc1cc(Cl)ccn1)c1sccc1OCc1ccccc1` [1-6, 3-benzyloxy-N-(4-chloropyridin-2-yl)thiophene-2-carboxamide]: the inhibition at 10 µM was found to be 50%.
Turning to `O=C(Nc1ccccc1)c1sccc1OCc1ccccc1` [1-7, 3-benzyloxy-N-phenylthiophen-2-carboxamide], the inhibition at 10 µM was 50%.
As for `CC(C)(O)COc1ccc(F)cc1COc1ccsc1C(=O)Nc1cccnc1` [1-8, 3-(5-fluoro-2-(2-hydroxy-2-methylpropoxy)benzyloxy)-N-(pyridin-3-yl)thiophene-2-carboxamide], the inhibition at 10 µM amounted to 56%.
Consider `O=C(Nc1cccc(O)n1)c1sccc1OCc1ccccc1` [1-9, 3-benzyloxy-N-(6-hydroxypyridine-2-yl)thiophene-2-carboxamide], for which the inhibition at 10 µM is 50%.
As for `O=C(Nc1cccnc1)c1sccc1OCc1ccc2ccccc2c1` [1-11, 3-(naphthalen-2-ylmethoxy)-N-(pyridin-3-yl)thiophene-2-carboxamide], the inhibition at 10 µM was found to be 50%.
Turning to `O=C(Nc1cccnc1)c1sc([N+](=O)[O-])cc1OCc1ccccc1` [1-14, 3-benzyloxy-5-nitro-N-(pyridin-3-yl)thiophene-2-carboxamide], the inhibition at 10 µM turned out to be 50%.
Turning to `O=C(Nc1cccnc1)c1scc(Br)c1OCc1ccccc1` [1-15, 3-benzyloxy-4-bromo-N-(pyridin-3-yl)thiophene-2-carboxamide], the inhibition at 10 µM amounted to 53%.
The same measure, in the same setting: the value for `O=C(O)CCCCCOc1ccccc1COc1ccsc1C(=O)Nc1cccnc1` [1-17, 6-(2-[(2-(pyridin-3-ylcarbamoyl)thiophene-3-yl)oxymethyl]phenoxy)hexanoic acid] was 50%.
Turning to `CCOC(=O)CCCCCOc1ccccc1COc1ccsc1C(=O)Nc1cccnc1` [1-18, 6-(2-[(2-(pyridin-3-ylcarbamoyl)thiophene-3-yl)oxymethyl]phenoxy)ethyl hexanoate], the inhibition at 10 µM was 97%.
Still for that read-out and setting: to `O=C(Nc1cccnc1)c1sccc1OCc1cccc2c1Oc1c(F)c(F)c(F)c(F)c1O2` [1-19, N-(pyridin-3-yl)-3-[(6,7,8,9-tetrafluorodibenzo[b,e][1,4]dioxin-1-yl)methoxy]thiophene-2-carboxamide] belongs 77%; to `O=C(Nc1cccnc1)c1sccc1OCc1ccccc1[N+](=O)[O-]` [1-21, 3-(2-nitrobenzyloxy)-N-(pyridin-3-yl)thiophene-2-carboxamide], 93%; to `COC(=O)c1ccccc1COc1ccsc1C(=O)Nc1cccnc1` [1-22, 2-[(2-(pyridin-3-ylcarbamoyl)thiophene-3-yl)oxymethyl]methyl benzoate], 81%.
As to `CC(C)(C)C(=O)Oc1ccc(Cl)c(COc2ccsc2C(=O)Nc2cccnc2)c1` [1-23], the inhibition at 10 µM is 53%.
`Cc1ccc(COc2ccsc2C(=O)Nc2cccnc2)cc1` [1-42, 3-(4-methylbenzyloxy)-N-(pyridin-3-yl)thiophene-2-carboxamide]: the inhibition at 10 µM was determined as 50%.
For `O=C(Nc1cccnc1)c1sccc1OCc1ccc(F)cc1` [1-46, 3-(4-fluorobenzyloxy)-N-(pyridin-3-yl)thiophene-2-carboxamide], the inhibition at 10 µM was determined as 70%.
Turning to `N#Cc1ccccc1COc1ccsc1C(=O)Nc1cccnc1` [1-50, 3-(2-cyanobenzyloxy)-N-(pyridin-3-yl)thiophene-2-carboxamide], the inhibition at 10 µM turned out to be 66%.
The same measure, in the same setting: to `N#Cc1cccc(COc2ccsc2C(=O)Nc2cccnc2)c1` [1-51, 3-(3-cyanobenzyloxy)-N-(pyridin-3-yl)thiophene-2-carboxamide] belongs 60%; to `N#Cc1ccc(COc2ccsc2C(=O)Nc2cccnc2)cc1` [1-52, 3-(4-cyanobenzyloxy)-N-(pyridin-3-yl)thiophene-2-carboxamide], 50%.

The values are drawn from patent EP4768480A1, “ALKOXY THIOPHENE ACYL ARYLAMINE COMPOUNDS AND USE THEREOF” (priority 2024, dated 2025).
